# Data from PMC9736856, “Biological Investigation and Chemical Study of Brassica villosa subsp. drepanensis (Brassicaeae) Leaves” (Molecules, 2022).
# How the values were obtained:
# [1] = ABTS radical-scavenging assay; settings: cell free
# Procedure: In this assay, a solution of ABTS radical cations was mixed with a potassium persulphate solution and stored at room temperature for 12 h. The obtained solution was diluted with ethanol, read to obtain an absorbance of 0.70 at 734 nm, and added to the tested sample (1–400 μg/mL). After 6 min, the absorbance was read at 734 nm. Ascorbic acid was the positive control. The ABTS radical-scavenging ability was calculated with this equation: [(A0−A1)/A0] × 100, where A0 is the absorbance of the control and A1 is the absorbance in the presence of the samples.
# [2] = β-carotene bleaching test
# Procedure: The β-carotene bleaching test was performed following the procedure previously described, using propyl gallate as the positive control. […] The microplate was located in a water bath at 45 °C and the absorbance was read at 470 nm against a blank at t = 0 and after 30 and 60 min of incubation.
# CaCo-2 cells = experiment: MTT assay, CaCo-2; format: cell-based; settings: Homo sapiens, read-out: IC50 (MTT, cytotoxicity standard)
# Procedure: The human foreskin fibroblast cell line HFF-1 (ATCC® SCRC-1041.1) was maintained in DMEM supplemented with 15% v/v foetal bovine serum (FBS), 4.5 g/L glucose, 100 U/mL penicillin, and […] streptomycin. HFF-1 was used as an in vitro human model for preliminary toxicity screening. Mouse leukemic monocyte-macrophage cells RAW 264.7 (Sigma-Aldrich 91062702) were cultured in EMEM supplemented with 2 mM L-Glutamine (Euroclone, Milan, Italy), 1% non-essential amino acids, 10% FBS, and penicillin/streptomycin/amphotericin. […] was used as an in vitro model of LPS-induced inflammation. Human colon carcinoma cells CaCo-2 (ATCC®, HTB-37) were cultured in DMEM supplemented with 10% FBS, 1 mmol/L sodium pyruvate, 2 mmol/L L-glutamine, streptomycin ([…]), and penicillin (50 U/mL). […]
# HFF-1, RAW 264.7, CaCo-2, DU145, 1321N1, and U87 MG cells were treated with different concentrations of total extract (25–50–100–150–250–500–1000 μg/mL), while RAW 264.7 cells were also treated with the fractions obtained from the total extract (EtOAc, n-BuOH, and H2O) at the same concentrations (25–50–100–150–250–500–1000 μg/mL) for 24 h. […] The absorbance of the converted formazan was measured using a microplate spectrophotometer reader (Titertek Multiskan, Flow Laboratories, Helsinki, Finland) at λ = 570 nm. […]
# DPPH test = settings: positive control
# Procedure: Free radical-scavenging capacity was analysed through the ability of the total extract and the fractions to bleach the stable radical DPPH. […] Briefly, after 10 min at room temperature, the absorbance at λ = 517 nm of the DPPH reaction mixture containing different concentrations of […] extract (125-1000 μg/mL) in 1 mL of ethanol was recorded. Results, expressed as decrease in absorbance, represent the average ± S.D. of three independent experiments.
# [3] = SOD-like activity (superoxide anion scavenging, NADH oxidation); settings: positive control
# Procedure: The scavenger effect of B. drepanensis extract and the fractions on superoxide anions was recorded as a decrease in absorbance at λ = 340 nm, as previously reported by Salerno et al.. […] SOD (80 mU) was used as a reference compound.
molecule,measurement,setting,value
"O=C1O[C@H]([C@@H](O)CO)C(O)=C1O [Ascorbic acid, ascorbic acid]",ABTS Test IC50,[1],1.73 ± 0.06 µg/mL
"CCCOC(=O)c1cc(O)c(O)c(O)c1 [Propyl gallate, propyl gallate]",β-Carotene Bleaching Test IC50,[2]; after 30 min of incubation,0.09 ± 0.04 µg/mL
same,β-Carotene Bleaching Test IC50,[2]; after 60 min of incubation,0.09 ± 0.04 µg/mL
"COc1cccc2c1C(=O)c1c(O)c3c(c(O)c1C2=O)C[C@@](O)(C(=O)CO)C[C@@H]3O[C@H]1C[C@H](N)[C@H](O)[C@H](C)O1 [doxorubicin, Doxorubicin]",IC50,CaCo-2 cells,21 ± 0.3 µM
Cc1c(C)c2c(c(C)c1O)CCC(C)(C(=O)O)O2 (stereo not drawn) [Trolox],IC50,DPPH test,15 µM
superoxide dismutase [SOD],SOD-like Activity IC50,[3],40 mU ± 0.85
